Laboratory results as given in paper PMC6544370 (Nature, 2019).

Molecular target: Lp-CdnE02 (CD-NTase057) (Legionella pneumophila, UniProt P0DSP3)
Sequence (P0DSP3 whole entry, looked up): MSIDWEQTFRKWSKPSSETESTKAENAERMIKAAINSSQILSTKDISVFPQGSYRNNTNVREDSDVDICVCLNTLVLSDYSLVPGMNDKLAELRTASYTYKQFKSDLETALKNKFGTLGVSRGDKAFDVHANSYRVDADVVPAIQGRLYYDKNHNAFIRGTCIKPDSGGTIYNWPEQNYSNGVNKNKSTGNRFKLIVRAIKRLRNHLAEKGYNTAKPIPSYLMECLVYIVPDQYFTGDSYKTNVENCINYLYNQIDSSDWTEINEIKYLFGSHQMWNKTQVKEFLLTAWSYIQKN

O=c1ccn([C@@H]2O[C@H](COP(=O)(O)OP(=O)(O)OP(=O)(O)O)[C@@H](O)[C@H]2O)c(=O)[nH]1 [UTP]
radiolabelled NTP, TLC and mass spectrometry: Lp-CdnE02 synthesized predominantly c-di-UMP
